Columns and labels:
[1] = in vitro experiments; cited from earlier work
[2] = 14 d stability at 37° C. of immunosuppressors in the system suitability solution with different antioxidants (LC-MS/MS peak area); format: physicochemical; settings: for Change of content (in words): not adding an antioxidant, system suitability solution and internal standard solution
From the text: (§1) Supernatant was taken and detected by high performance liquid chromatography-tandem mass spectrometry; and a spectrogram of the standard curve at the lowest point was shown in FIG. 1. Specific analysis conditions were as follows: gradient elution was used to an instrumental method; and the tandem mass spectrum: electrospray ionization (ESI) ion source and positive ion Multiple Reaction Monitoring (MRM) Mode were taken.
(§2) Antioxidants included 2,6-di-tert-butyl-p-cresol, vitamin E, vitamin C, β-carotene, and sodium metabisulfite.

[3] = 14 d stability at 37° C. of immunosuppressors in sterile bovine blood with vitamin E at different concentrations; format: physicochemical; settings: for Decline of concentration (in words): vitamin E 1.0 mg/mL and 1.5 mg/mL
[4] = 14 d stability at 37° C. of isotope internal standards in the internal standard solution with different antioxidants (LC-MS/MS peak area); format: physicochemical
From the text: as §1, §2

[5] = 14 d at 37° C., antioxidant 2,6-di-tert-butyl-p-cresol
[6] = 14 d at 37° C., antioxidant Sodium metabisulfite
[7] = 14 d at 37° C., antioxidant Vitamin C
[8] = 14 d at 37° C., antioxidant Vitamin E
[9] = 14 d at 37° C., antioxidant β-carotene
[10] = 14 d at 37° C., free of adding antioxidant
[11] = 14 d at 37° C., vitamin E 0.5 mg/mL
[12] = 14 d at 37° C., vitamin E 1.0 mg/mL
[13] = 14 d at 37° C., vitamin E 1.5 mg/mL
[14] = 14 d at 37° C., antioxidant P-carotene

| Peak area of system suitability solution [2, 5] | Peak area of system suitability solution [2, 6] | Peak area of system suitability solution [2, 7] | Peak area of system suitability solution [2, 8] | Peak area of system suitability solution [2, 9] | Peak area of system suitability solution [2, 10] | Change of content (in words) ([2]; 14 d at 37° C.) | Peak area of system suitability solution ([2]; Initial values) | Sample detection concentration [3, 11] [ng/mL] | Sample detection concentration [3, 12] [ng/mL] | Decline of concentration (in words) ([3]; 14 d at 37° C.) | Sample detection concentration [3, 13] [ng/mL] | Sample detection concentration ([3]; Initial values) [ng/mL] | Peak area of internal standard solution [4, 5] | Peak area of internal standard solution [4, 14] | Peak area of internal standard solution [4, 6] | Peak area of internal standard solution [4, 7] | Peak area of internal standard solution [4, 8] | Peak area of internal standard solution [4, 10] | Peak area of internal standard solution ([4]; Initial values) | SMILES | further results |
| --- | --- | --- | --- | --- | --- | --- | --- | --- | --- | --- | --- | --- | --- | --- | --- | --- | --- | --- | --- | --- | --- |
| 27771 | 8044 | 30470 | 69879 | 8659 | 7408 | almost dropped dramatically | 74430 | 73.3 | 80.1 | no obvious decline | 79.0 | 79.7 |  |  |  |  |  |  |  | C=CC[C@@H]1/C=C(\C)C[C@H](C)C[C@H](OC)[C@H]2O[C@@](O)(C(=O)C(=O)N3CCCC[C@H]3C(=O)O[C@H](/C(C)=C/[C@@H]3CC[C@@H](O)[C@H](OC)C3)[C@H](C)[C@@H](O)CC1=O)[C@H](C)C[C@@H]2OC [Tacrolimus] | Immunological competence relative to cyclosporine A [1]: 50-100 times |
| 3533 | 6256 | 11782 | 98290 | 3599 | 2401 | almost dropped dramatically | 111146 | 62.1 | 75.3 | no obvious decline | 75.7 | 80.1 |  |  |  |  |  |  |  | CO[C@H]1C[C@@H]2CC[C@@H](C)[C@@](O)(O2)C(=O)C(=O)N2CCCC[C@H]2C(=O)O[C@H]([C@H](C)C[C@@H]2CC[C@@H](OCCO)[C@H](OC)C2)CC(=O)[C@H](C)/C=C(\C)[C@@H](O)[C@@H](OC)C(=O)[C@H](C)C[C@H](C)/C=C/C=C/C=C/1C [Everolimus] | Decrease of concentration [3, 11]: 22.5% |
|  |  |  |  |  |  |  |  |  |  |  |  |  | 28579 | 5494 | 5764 | 25618 | 53397 | 6069 | 60178 | [2H][13C]([2H])=CC[C@@H]1/C=C(\C)C[C@H](C)C[C@H](OC)[C@H]2O[C@@](O)(C(=O)C(=O)N3CCCC[C@H]3C(=O)O[C@H](/C(C)=C/[C@@H]3CC[C@@H](O)[C@H](OC)C3)[C@H](C)[C@@H](O)C([2H])([2H])C1=O)[C@H](C)C[C@@H]2OC [Tacrolimus-13C-d4, tacrolimus-13C-d4] |  |
|  |  |  |  |  |  |  |  |  |  |  |  |  | 7033 | 3308 | 5301 | 6664 | 62889 | 3768 | 71424 | [2H]C([2H])([2H])O[C@H]1C[C@@H]2CC[C@@H](C)[C@@](O)(O2)C(=O)C(=O)N2CCCC[C@H]2C(=O)O[C@H]([C@H](C)C[C@@H]2CC[C@@H](O)[C@H](OC)C2)CC(=O)[C@H](C)/C=C(\C)[C@@H](O)[C@@H](OC)C(=O)[C@H](C)C[C@H](C)/C=C/C=C/C=C/1C [Sirolimus-d3, sirolimus-d3] |  |

From US12135333B2, “Detection kit for detecting immunosuppressors in whole blood by high performance liquid chromatography-tandem mass spectrometry and detection method thereof” (Hangzhou Calibra Diagnostics Co., Ltd., priority 2021, dated 2024)
